Measurements taken from patent publication US20060063930A1, “Compositions and methods comprising proteinase activated receptor antagonists” (priority 2004, published 2006).
Structures can show the parent of a compound that is named as a salt. Where no end group is shown, it is not given here. [ ]: non-standard residue; d: D form. Dab = NCC[C@H](N)C(=O)O

System: PAR-2
Assay: Inhibition of PAR-2 activating peptide (AP2) calcium signaling in cells pretreated with antagonist
Format: cell-based, human
Design: key to PAR-2 AP2 Signaling Treated/Control (T/C) / PAR-2 AP2 Signaling Treated/Control: AUC of calcium mobilization, treated ÷ control wells
Settings: AUC of calcium mobilization treated/control, initially screened at 1 mM compound; for PAR-2 AP2 Signaling Treated/Control: mimetic antagonists; for PAR-2 AP2 Signaling Treated/Control (T/C): peptides
Description: In order to assess the potential of peptides and molecules selected above to block PAR-2 signaling, cells were pretreated with potential antagonist peptides for a predetermined amount of time and were subsequently treated with various GPCR agonists. Confluent Lewis lung carcinoma (LLC) cells were loaded for 30-60 minutes with the fluorescent dye Fluo-4. Final concentration 4 uM Fluo-4, 0.02% pluronic acid in physiological buffer. Cells were then washed with assay buffer, (HBSS containing 1 mM CaCl2, 1 mM MgSO4, and 2.5 mM probenecid). Cells were stimulated with various doses of PAR-2 activating peptide, PAR-1 activating peptide or ATP. Fluorescence was monitored using a Wallac 1470 fluorescent plate reader. (See Al-ani et. al Journal of Pharmacology and Experimental Therapeutics 290:2, 753-760). Additional compound screening was performed using U87-MG human glioma cells. In this assay cells were labeled with FLIPR Calcium 3 dye (Component A), which was dissolved in 10 mls of Assay Buffer without Probenecid. Loading buffer was prepared by diluting Component A with an additional 90 mls of Assay Buffer without Probenecid, giving a total volume of a 100 ml. For plate loading, 11 mls of FLIPR Calcium 3 dye (Component A) is placed into a 15 ml conical tube+110 μl of 250 mM Probenecid, at a final in-well working volume of 2.5 mM. Finally, 50 μl of Calcium 3 dye was added wells containing 100 μl media, and incubated 1 hr, 37° C., 5% CO2. Calcium signaling was then measured using a Flexstation II (Molecular Devices) following manufacturer's instructions.
Potential antagonist compounds were initially screened at 1 mM compound concentration. Those compounds with activity were then subjected to additional confirmatory testing. Activity is reported as treated/controlled (T/C) where the area under the curve (AUC) of calcium mobilization plots in treated wells is divided by the AUC of calcium mobilization plots in control wells to generate a measure of inhibition.

Molecule | PAR-2 AP2 Signaling Treated/Control | further results
NCCCCCCNC(=O)C1CCS(=O)(=O)N1CCC1CCCCC1 (stereo not shown) [ENMD-1547, N-(2-cyclohexyl)ethylisothiasolidine-1,1-dioxide-3-carboxylic acid-6-aminohexylamide] | 0.24 | 
NCCCCCC(=O)N1CC(NC(=O)CC2CCCCC2)C1 [ENMD-1514, 2-cyclohexylacetamid-N-(6-amino-1-hexanoylazetidin-3-yl)] | 0.53 | 
LIGD [ENMD-1045] |  | PAR-2 AP2 Signaling Treated/Control (T/C): 0.39
N=C(N)NCCCCCC(=O)N1CCN(C(=O)Cc2ccccc2)CC1 [ENMD-1077, 4-phenylacetoyl-piperazin-1-(5′-carbamoyl-pentylguanidine)] | 0.80 | 
NCCCCCCn1c(=O)n(CCC2CCCCC2)c2ccccc21 [ENMD-1518, 1-(6-aminohexyl)-3-[(2-cyclohexyl)ethyl]benzimidazol-(2)-one] | 0.58 | 
LIGR [ENMD-1022] |  | PAR-2 AP2 Signaling Treated/Control (T/C): 0.26
CC(C)CC(=O)Nc1nc(CC(=O)NCCCCCN)cs1 [ENMD-1561, N-{4-[(5-Amino-pentylcarbamoyl)-methyl]-thiazol-2-yl}-3-methyl-butyramide hydrochloride] |  | PAR-2 AP2 Signaling Treated/Control (hydrochloride): 0.89
LIGH [ENMD-1054] |  | PAR-2 AP2 Signaling Treated/Control (T/C): 0.83
NCCCCCCNc1nc2ccc(C(=O)NCC3CCCCC3)cc2[nH]1 [ENMD-1553, 2-(6-Amino-hexylamino)-3H-benzoimidazole-5-carboxylic acid cyclohexylmethyl-amide] | 0.81 | 
CC(C)CCn1c(=O)n(CCc2ccc(NC(C)C)cc2)c2ccccc21 [ENMD-1563, 1-[4-(isopropylamine)-phenethyl]-3-isopentyl-1H-benzo[d]imidazole-2(3H)-one] | 0.62 | 
LIGK-amide (LIGK-NH2) [ENMD-1020] |  | PAR-2 AP2 Signaling Treated/Control (T/C): 0.54
NCCCCCC(=O)N[C@@H]1CC[C@H](C(=O)NCC2CCCCC2)C1 [ENMD-1505, N-cyclohexylmethyl-3S-(6-aminohexanamido)-cyclopentane-1R-carboxamide] | 0.19 | 
NCCCNC(=O)c1ccc(OCC2CCCCC2)cc1 [ENMD-1409, N-(3-aminopropyl)-4-(cyclohexylmethoxy)-benzamide] | 0.45 | 
LIG-Dab (LIG[Dab]) [ENMD-1026] |  | PAR-2 AP2 Signaling Treated/Control (T/C): 0.23
NCCCCNc1ccc(C(=O)NCC2CCCCC2)cn1 [ENMD-1543] | 0.55 | 
CC(C)CC(=O)Nc1ccc(NC(=O)CCCN)cc1 [ENMD-1397, N-(4-(3-methylbutanamido)phenyl)-4-aminobutyl-amide hydrobromide] | 0.15 | 
NCCCCCC(=O)N1CCN(C(=O)CC2CCCCC2)CC1 [ENMD-1073, N′-(2-cyclohexylethanoyl)-N^4-(6-aminohexanoyl)piperazine] | 0.56 | 
CC(C)Cn1cccc1C(=O)NCCCCCCN [ENMD-1537, N-(6-aminohexyl)-1-(2-methylpropyl)-2-pyrrolecarboxamide] | 0.91 | 
CC(C)CNC(=O)c1cc(NC(=O)CCCCCN)[nH]n1 [ENMD-1533, 5-(6-Amino-hexanoylamino)-1H-pyrazole-3-carboxylic acid isobutyl-amide] | 0.68 | 
CC(C)CCn1c(=O)n(CCc2ccc(N)cc2)c2ccccc21 [ENMD-1573, 1-(4-aminophenethyl)-3-isopentyl-1H-benzo[d]imidazole-2(3H)-one] | 0.01 | 
NCCCCCCNC(=O)c1cc(CNC(=O)CC2CCCCC2)on1 [ENMD-1557, 5-[(2-Cyclohexyl-acetylamino)-methyl]-isoxazole-3-carboxylic acid (6-amino-hexyl)-amide] | 0.52 | 
CCC(C)C(=O)N1CCN(C(=O)CCCCCN)CC1 (stereo not shown) [ENMD-1033, N′-[S-2-methylbutanoyl]-N^4-[6′-aminohexanoyl]-piperazine] | 0.28 | 
